Experimental data: patent US7446199B2, “Compositions useful as inhibitors of protein kinases” (Vertex Pharmaceuticals Incorporated, priority 2003, dated 2008)

Columns and labels:
[1] = molecular target: T1, FLT-3 (Homo sapiens, UniProt P36888); experiment: Inhibition of FLT-3, radiometric filter-binding assay; type: biochemical; conditions: 90 μM ATP, 0.5 mg/mL pE4Y, room temperature
T1 construct: 0.02% BSA and 3 nM FLT-3
T1 sequence (P36888 27-993): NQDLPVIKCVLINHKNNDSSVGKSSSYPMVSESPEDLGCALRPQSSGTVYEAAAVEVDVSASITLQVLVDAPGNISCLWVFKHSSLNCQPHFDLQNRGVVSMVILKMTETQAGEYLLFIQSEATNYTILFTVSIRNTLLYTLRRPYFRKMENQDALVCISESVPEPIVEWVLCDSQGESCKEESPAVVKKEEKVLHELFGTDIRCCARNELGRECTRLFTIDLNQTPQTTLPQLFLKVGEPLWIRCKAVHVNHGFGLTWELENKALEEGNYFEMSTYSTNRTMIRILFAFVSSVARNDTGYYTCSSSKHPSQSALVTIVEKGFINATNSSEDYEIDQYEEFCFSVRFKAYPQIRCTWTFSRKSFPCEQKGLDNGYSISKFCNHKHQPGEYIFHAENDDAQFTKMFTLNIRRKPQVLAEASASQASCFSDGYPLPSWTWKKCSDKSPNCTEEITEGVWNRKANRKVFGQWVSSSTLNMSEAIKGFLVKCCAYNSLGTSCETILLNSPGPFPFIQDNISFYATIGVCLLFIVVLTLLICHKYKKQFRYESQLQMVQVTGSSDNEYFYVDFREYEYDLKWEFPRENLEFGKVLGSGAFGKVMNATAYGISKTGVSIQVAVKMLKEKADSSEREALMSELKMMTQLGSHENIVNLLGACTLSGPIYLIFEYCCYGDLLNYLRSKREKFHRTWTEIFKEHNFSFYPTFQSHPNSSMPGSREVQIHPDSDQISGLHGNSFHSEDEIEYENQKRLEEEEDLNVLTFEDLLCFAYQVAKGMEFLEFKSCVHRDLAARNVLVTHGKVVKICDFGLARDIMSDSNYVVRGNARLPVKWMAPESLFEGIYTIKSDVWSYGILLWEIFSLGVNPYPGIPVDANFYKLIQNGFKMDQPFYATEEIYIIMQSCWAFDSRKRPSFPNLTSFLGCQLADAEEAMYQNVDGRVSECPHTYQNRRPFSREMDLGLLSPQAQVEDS
Procedure, shortened: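 Radiometric filter-binding assay of FLT-3 (3 nM in Solution 2; final conc not stated) phosphorylating poly(Glu,Tyr) 4:1 (0.5 mg/mL) with 90 μM ATP plus [γ-33P]ATP, in HEPES pH 7.5, MgCl2, NaCl, DTT, BSA, 2.5% DMSO. 12-point titration, typically 0.01–5 μM, 20 min at room temperature; TCA-stopped, filtered, scintillation-counted; IC50 or Ki fitted.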

[2] = molecular target: c-Met (Homo sapiens, UniProt P08581); experiment: Ki determination for the inhibition of c-Met, coupled enzyme system; type: biochemical; conditions: 200 μM ATP, 10 μM polyGluTyr, 80 nM c-Met, 30° C.
Sequence of c-Met (P08581 25-1390): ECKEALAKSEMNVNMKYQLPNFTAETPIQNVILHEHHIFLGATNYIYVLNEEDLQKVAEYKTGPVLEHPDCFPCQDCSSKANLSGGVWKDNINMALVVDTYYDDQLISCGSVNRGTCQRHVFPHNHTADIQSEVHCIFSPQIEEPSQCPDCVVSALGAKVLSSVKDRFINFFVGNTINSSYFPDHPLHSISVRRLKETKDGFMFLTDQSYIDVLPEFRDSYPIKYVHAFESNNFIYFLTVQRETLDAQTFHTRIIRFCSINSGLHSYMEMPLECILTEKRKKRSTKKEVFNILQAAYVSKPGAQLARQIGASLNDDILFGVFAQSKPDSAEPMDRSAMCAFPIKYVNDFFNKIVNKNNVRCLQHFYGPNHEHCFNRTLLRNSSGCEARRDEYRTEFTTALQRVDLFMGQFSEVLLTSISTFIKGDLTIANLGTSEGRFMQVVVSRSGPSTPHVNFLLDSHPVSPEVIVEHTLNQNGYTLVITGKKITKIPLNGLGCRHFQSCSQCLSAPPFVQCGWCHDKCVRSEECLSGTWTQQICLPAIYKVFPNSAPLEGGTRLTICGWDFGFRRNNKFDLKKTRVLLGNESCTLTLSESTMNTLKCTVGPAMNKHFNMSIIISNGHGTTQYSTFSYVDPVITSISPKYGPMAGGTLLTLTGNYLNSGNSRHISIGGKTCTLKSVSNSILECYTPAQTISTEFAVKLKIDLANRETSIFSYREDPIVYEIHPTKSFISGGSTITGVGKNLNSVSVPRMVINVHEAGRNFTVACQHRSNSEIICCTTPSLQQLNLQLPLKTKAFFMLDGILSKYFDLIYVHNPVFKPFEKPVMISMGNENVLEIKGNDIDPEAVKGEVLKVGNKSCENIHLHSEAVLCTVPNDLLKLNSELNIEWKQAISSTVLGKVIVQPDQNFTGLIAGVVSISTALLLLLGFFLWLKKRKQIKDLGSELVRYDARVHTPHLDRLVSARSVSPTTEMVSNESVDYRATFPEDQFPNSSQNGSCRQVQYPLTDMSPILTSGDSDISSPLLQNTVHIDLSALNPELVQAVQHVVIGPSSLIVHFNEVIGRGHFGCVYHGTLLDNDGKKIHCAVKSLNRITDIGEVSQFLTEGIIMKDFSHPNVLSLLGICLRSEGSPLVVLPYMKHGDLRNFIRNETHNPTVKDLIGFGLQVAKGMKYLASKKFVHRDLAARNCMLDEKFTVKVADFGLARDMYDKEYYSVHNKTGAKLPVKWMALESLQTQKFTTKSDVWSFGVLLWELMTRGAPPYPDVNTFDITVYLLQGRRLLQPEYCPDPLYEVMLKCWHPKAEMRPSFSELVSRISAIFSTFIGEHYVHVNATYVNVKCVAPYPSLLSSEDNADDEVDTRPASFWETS
Procedure, shortened: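 Coupled pyruvate kinase/lactate dehydrogenase NADH assay with 80 nM c-Met, 200 μM ATP, 10 μM polyGluTyr in pH 7.5 HEPES, 1.5% DMSO at 30° C. Compound (0.006–12.5 μM final, 12-point) preincubated 10 min; ATP started reaction, rates read over 10 min; Ki derived from rate versus inhibitor concentration.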

Ki [1] | Ki [2] | Structure (SMILES)
< 0.2 µM | < 0.2 µM | NC1CC=C(c2cnc3[nH]cc(-c4oncc4-c4cccc(F)c4F)c3c2)CC1 (stereo not drawn) [Compound 137, 4-{3-[4-(2,3-Difluoro-phenyl)-isoxazol-5-yl]-1H-pyrrolo [2,3-b]pyridin-5-yl}-cyclohex-3-enylamine]
< 0.2 µM | < 0.2 µM | CN(C)C1CC=C(c2cnc3[nH]cc(-c4oncc4-c4cccc(F)c4F)c3c2)CC1 (stereo not drawn) [Compound 138, (4-{3-[4-(2,3-Difluoro-phenyl)-isoxazol-5-yl]-1H-pyrrolo[2,3-b]pyridin-5-yl}-cyclohex-3-enyl)-dimethyl-amine]
< 0.2 µM | < 0.2 µM | Fc1cccc(-c2cnoc2-c2c[nH]c3ncc(C4=CCC(N5CCOCC5)CC4)cc23)c1F (stereo not drawn) [Compound 139, 3-[4-(2,3-Difluoro-phenyl)-isoxazol-5-yl]-5-(4-morpholin-4-yl-cyclohex-1-enyl)-1H-pyrrolo[2,3-b]pyridine]
< 0.2 µM | < 0.2 µM | CS(=O)(=O)NC1CC=C(c2cnc3[nH]cc(-c4oncc4-c4cccc(F)c4F)c3c2)CC1 (stereo not drawn) [Compound 140, N-(4-{3-[4-(2,3-Difluoro-phenyl)-isoxazol-5-yl]-1H-pyrrolo[2,3-b]pyridin-5-yl}-cyclohex-3-enyl)-methanesulfonamide]
1 to 12.5 µM | 0.2 to 1 µM | Cn1ccc2c(-c3oncc3-c3cccc(F)c3F)c[nH]c2c1=O [Compound 144, 3-[4-(2,3-Difluoro-phenyl)-isoxazol-5-yl]-6-methyl-1,6-dihydro-pyrrolo[2,3-c]pyridin-7-one]
1 to 12.5 µM | 1 to 12.5 µM | Nc1[nH]c2ncccc2c1-c1oncc1-c1cccc(F)c1F [Compound 152]

More lines, now with the values behind:

Structure (SMILES) | Ki [1] | Ki [2]
CN1CCN(c2ccc(-c3cnc4[nH]cc(-c5nncn5-c5cccc(F)c5F)c4c3)cn2)CC1 [Compound 112] | 0.2 to 1 µM | < 0.2 µM
Fc1cccc(-n2cnnc2-c2c[nH]c3ncc(-c4ccc(N5CCC[C@H]5CN5CCCC5)nc4)cc23)c1F [Compound 115, 3-[4-(2,3-Difluoro-phenyl)-4H-[1,2,4]triazol-3-yl]-5-[6-(2-pyrrolidin-1-ylmethyl-pyrrolidin-1-yl)-pyridin-3-yl]-1H-pyrrolo[2,3-b]pyridine] | 0.2 to 1 µM | < 0.2 µM
OC1CCN(c2ccc(-c3cnc4[nH]cc(-c5nncn5-c5cccc(F)c5F)c4c3)cn2)CC1 [Compound 116, 5′-{3-[4-(2,3-Difluoro-phenyl)-4H-[1,2,4]triazol-3-yl]-1H-pyrrolo[2,3-b]pyridin-5-yl}-3,4,5,6-tetrahydro-2H-[1,2′]bi-pyridinyl-4-ol] | 0.2 to 1 µM | < 0.2 µM
CN1CCCN(c2ccc(-c3cnc4[nH]cc(-c5nncn5-c5cccc(F)c5F)c4c3)cn2)CC1 [Compound 117, 3-[4-(2,3-Difluoro-phenyl)-4H-[1,2,4]triazol-3-yl]-5-[6-(4-methyl-[1,4]diazepan-1-yl)-pyridin-3-yl]-1H-pyrrolo [2,3-b]-pyridine] | 0.2 to 1 µM | < 0.2 µM
Fc1cccc(-n2cnnc2-c2c[nH]c3ncc(-c4ccc(N5CCCC5)nc4)cc23)c1F [Compound 118, 3-[4-(2,3-Difluoro-phenyl)-4H-[1,2,4]triazol-3-yl]-5-(6-pyrrolidin-1-yl-pyridin-3-yl)-1H-pyrrolo[2,3-b]pyridine] | 0.2 to 1 µM | < 0.2 µM
CN(C)CCNc1ccc(-c2cnc3[nH]cc(-c4nncn4-c4cccc(F)c4F)c3c2)cn1 [Compound 119, N′-(5-{3-[4-(2,3-Difluoro-phenyl)-4H-[1,2,4]triazol-3-yl]-1H-pyrrolo[2,3-b]pyridin-5-yl}-pyridin-2-yl)-N,N-dimethyl-ethane-1,2-diamine] | 0.2 to 1 µM | < 0.2 µM
Fc1cccc(-c2cnoc2-c2c[nH]c3ncc(/C=C/n4cncn4)cc23)c1F [Compound 133, 3-[4-(2,3-Difluoro-phenyl)-isoxazol-5-yl]-5-(2-[1,2,4]triazol-1-yl-vinyl)-1H-pyrrolo[2,3-b]pyridine] | < 0.2 µM | < 0.2 µM
Cc1noc(-c2c[nH]c3ncccc23)c1-c1cccc(F)c1F [Compound 134, 3-[4-(2,3-Difluoro-phenyl)-3-methyl-isoxazol-5-yl]-1H-pyrrolo[2,3-b]pyridine] | < 0.2 µM | 0.2 to 1 µM
Fc1cccc(-c2cnoc2-c2c[nH]c3ncc(C4=CCC(NCc5ccccc5)CC4)cc23)c1F (stereo not drawn) [Compound 136, Benzyl-(4-{3-[4-(2,3-difluoro-phenyl)-isoxazol-5-yl]-1H-pyrrolo[2,3-b]pyridin-5-yl}-cyclohex-3-enyl)-amine] | 0.2 to 1 µM | < 0.2 µM
